Measured values taken from patent US12157741B2, “Macrocyclic inhibitors of DYRK1A” (DANA-FARBER CANCER INSTITUTE, INC., priority 2018, dated 2024).
Like-named read-outs stand apart in the source and are kept apart here.

What was measured:
Assay type in all cases: binding
[1] = biological target: various enzymes (Homo sapiens, UniProt P35590); conditions: compound 1 uM
Description: (§1) Ambit profiling was conducted in accordance with the manufacturer's instructions.

[2] = biological target: various enzymes (Homo sapiens, UniProt P32298); conditions: compound 1 uM
Description: as §1

[3] = biological target: various enzymes (Homo sapiens, UniProt P42336, H1047L)
Description: as §1

[4] = biological target: various enzymes (Homo sapiens, UniProt P68400); conditions: compound 1 uM
Description: as §1

[5] = biological target: various enzymes (Homo sapiens, UniProt O94768); conditions: compound 1 uM
Description: as §1

[6] = biological target: various enzymes (Homo sapiens, UniProt P21860); conditions: compound 1 uM
Description: as §1

[7] = biological target: various enzymes (Homo sapiens, UniProt Q02763); conditions: compound 1 uM
Description: as §1

[8] = biological target: various enzymes (Homo sapiens, UniProt P04626); conditions: compound 1 uM
Description: as §1

[9] = biological target: various enzymes (Homo sapiens, UniProt Q6ZN16); conditions: compound 1 uM
Description: as §1

[10] = biological target: various enzymes (Homo sapiens, UniProt Q8TD19); conditions: compound 1 uM
Description: as §1

[11] = biological target: various enzymes (Homo sapiens, UniProt P42336, H1047Y)
Description: as §1

[12] = biological target: various enzymes (Homo sapiens, UniProt P54760); conditions: compound 1 uM
Description: as §1

[13] = biological target: various enzymes (Homo sapiens, UniProt Q9Y5S2); conditions: compound 1 uM
Description: as §1

[14] = biological target: various enzymes (Homo sapiens, UniProt O15530); conditions: compound 1 uM
Description: as §1

[15] = biological target: various enzymes (Homo sapiens, UniProt P48730); conditions: compound 1 uM
Description: as §1

[16] = biological target: various enzymes (Homo sapiens, UniProt P15735); conditions: compound 1 uM
Description: as §1

[17] = biological target: various enzymes (Homo sapiens, UniProt Q92918); conditions: compound 1 uM
Description: as §1

[18] = biological target: various enzymes (Homo sapiens, UniProt Q8NG66); conditions: compound 1 uM
Description: as §1

[19] = biological target: various enzymes (Homo sapiens, UniProt Q6DT37); conditions: compound 1 uM
Description: as §1

[20] = biological target: various enzymes (Homo sapiens, UniProt Q9BYP7); conditions: compound 1 uM
Description: as §1

[21] = biological target: various enzymes (Homo sapiens, UniProt Q13233); conditions: compound 1 uM
Description: as §1

[22] = biological target: various enzymes (Homo sapiens, UniProt P10721, T670I/V559D)
Description: as §1

[23] = biological target: various enzymes (Homo sapiens, UniProt P16234); conditions: compound 1 uM
Description: as §1

[24] = biological target: various enzymes (Homo sapiens, UniProt Q14680); conditions: compound 1 uM
Description: as §1

[25] = biological target: various enzymes (Homo sapiens, UniProt Q99558); conditions: compound 1 uM
Description: as §1

[26] = biological target: various enzymes (Homo sapiens, UniProt O75716); conditions: compound 1 uM
Description: as §1

[27] = biological target: various enzymes (Homo sapiens, UniProt O15264); conditions: compound 1 uM
Description: as §1

[28] = biological target: various enzymes (Homo sapiens, UniProt P42338); conditions: compound 1 uM
Description: as §1

[29] = biological target: various enzymes (Homo sapiens, UniProt Q9BQI3); conditions: compound 1 uM
Description: as §1

[30] = biological target: various enzymes (Homo sapiens, UniProt P43405); conditions: compound 1 uM
Description: as §1

[31] = biological target: various enzymes (Homo sapiens, UniProt P54756); conditions: compound 1 uM
Description: as §1

[32] = biological target: various enzymes (Homo sapiens, UniProt Q15349); conditions: compound 1 uM
Description: as §1

[33] = biological target: various enzymes (Homo sapiens, UniProt P36888, R834Q)
Description: as §1

[34] = biological target: various enzymes (Homo sapiens, UniProt Q6P3R8); conditions: compound 1 uM
Description: as §1

[35] = biological target: various enzymes (Homo sapiens, UniProt O75460); conditions: compound 1 uM
Description: as §1

[36] = biological target: various enzymes (Homo sapiens, UniProt O95747); conditions: compound 1 uM
Description: as §1

[37] = biological target: various enzymes (Homo sapiens, UniProt Q16513); conditions: compound 1 uM
Description: as §1

[38] = biological target: various enzymes (Homo sapiens, UniProt Q00526); conditions: compound 1 uM
Description: as §1

[39] = biological target: various enzymes (Homo sapiens, UniProt Q14289); conditions: compound 1 uM
Description: as §1

[40] = biological target: various enzymes (Homo sapiens, UniProt Q59H18); conditions: compound 1 uM
Description: as §1

[41] = biological target: various enzymes (Homo sapiens, UniProt Q9UPE1); conditions: compound 1 uM
Description: as §1

[42] = biological target: various enzymes (Plasmodium falciparum, UniProt P62344)
Description: as §1

[43] = biological target: various enzymes (Homo sapiens, UniProt P07949); conditions: compound 1 uM
Description: as §1

[44] = biological target: various enzymes (Homo sapiens, UniProt Q8IW41); conditions: compound 1 uM
Description: as §1

various enzymes (Homo sapiens, UniProt Q15349), sequence (Q15349 whole entry): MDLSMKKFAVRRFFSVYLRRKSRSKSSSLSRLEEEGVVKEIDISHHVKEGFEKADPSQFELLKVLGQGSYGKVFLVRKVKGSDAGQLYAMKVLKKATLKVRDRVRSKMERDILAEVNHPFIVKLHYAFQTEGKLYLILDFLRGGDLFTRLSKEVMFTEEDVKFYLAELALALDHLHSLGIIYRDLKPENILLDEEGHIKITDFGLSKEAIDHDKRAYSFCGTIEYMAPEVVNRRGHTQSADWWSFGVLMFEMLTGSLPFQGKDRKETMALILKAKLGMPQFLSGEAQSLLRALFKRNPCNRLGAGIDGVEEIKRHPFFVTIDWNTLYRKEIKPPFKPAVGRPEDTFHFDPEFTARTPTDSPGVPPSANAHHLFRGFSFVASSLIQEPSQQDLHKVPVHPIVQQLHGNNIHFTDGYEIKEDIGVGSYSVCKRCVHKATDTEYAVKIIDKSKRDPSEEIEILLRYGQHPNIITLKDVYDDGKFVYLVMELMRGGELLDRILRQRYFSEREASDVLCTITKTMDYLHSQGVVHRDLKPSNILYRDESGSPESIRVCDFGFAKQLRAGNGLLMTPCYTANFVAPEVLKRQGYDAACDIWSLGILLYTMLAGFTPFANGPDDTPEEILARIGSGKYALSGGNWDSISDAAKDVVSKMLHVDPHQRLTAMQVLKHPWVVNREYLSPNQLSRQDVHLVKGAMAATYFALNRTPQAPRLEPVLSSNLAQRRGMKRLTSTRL
various enzymes (Homo sapiens, UniProt P16234), sequence (P16234 24-1089): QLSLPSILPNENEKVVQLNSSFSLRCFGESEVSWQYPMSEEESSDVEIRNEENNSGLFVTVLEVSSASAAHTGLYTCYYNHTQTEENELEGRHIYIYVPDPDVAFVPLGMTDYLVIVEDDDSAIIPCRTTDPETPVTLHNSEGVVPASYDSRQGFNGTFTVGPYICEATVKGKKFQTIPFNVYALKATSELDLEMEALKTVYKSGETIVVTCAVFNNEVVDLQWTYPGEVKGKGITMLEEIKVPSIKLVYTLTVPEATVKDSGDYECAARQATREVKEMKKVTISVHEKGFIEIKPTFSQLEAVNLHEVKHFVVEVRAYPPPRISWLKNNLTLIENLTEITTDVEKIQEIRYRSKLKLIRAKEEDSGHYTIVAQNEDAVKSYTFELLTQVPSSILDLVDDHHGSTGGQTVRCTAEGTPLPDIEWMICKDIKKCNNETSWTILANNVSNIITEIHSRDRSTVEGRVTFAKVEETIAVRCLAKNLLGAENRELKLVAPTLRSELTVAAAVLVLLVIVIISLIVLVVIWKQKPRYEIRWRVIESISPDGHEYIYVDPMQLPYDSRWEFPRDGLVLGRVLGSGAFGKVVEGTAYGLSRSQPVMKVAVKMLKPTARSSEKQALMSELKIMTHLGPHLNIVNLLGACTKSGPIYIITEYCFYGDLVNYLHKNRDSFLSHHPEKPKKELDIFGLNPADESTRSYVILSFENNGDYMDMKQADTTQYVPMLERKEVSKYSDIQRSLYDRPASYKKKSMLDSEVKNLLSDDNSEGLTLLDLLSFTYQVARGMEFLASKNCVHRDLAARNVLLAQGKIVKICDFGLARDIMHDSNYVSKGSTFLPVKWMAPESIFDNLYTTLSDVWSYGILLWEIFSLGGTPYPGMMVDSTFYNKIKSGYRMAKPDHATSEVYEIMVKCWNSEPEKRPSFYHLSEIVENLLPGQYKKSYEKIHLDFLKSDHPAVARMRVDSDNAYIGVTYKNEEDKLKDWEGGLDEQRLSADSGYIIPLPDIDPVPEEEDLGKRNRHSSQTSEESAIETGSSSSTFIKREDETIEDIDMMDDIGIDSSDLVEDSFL
various enzymes (Homo sapiens, UniProt O95747), sequence (O95747 whole entry): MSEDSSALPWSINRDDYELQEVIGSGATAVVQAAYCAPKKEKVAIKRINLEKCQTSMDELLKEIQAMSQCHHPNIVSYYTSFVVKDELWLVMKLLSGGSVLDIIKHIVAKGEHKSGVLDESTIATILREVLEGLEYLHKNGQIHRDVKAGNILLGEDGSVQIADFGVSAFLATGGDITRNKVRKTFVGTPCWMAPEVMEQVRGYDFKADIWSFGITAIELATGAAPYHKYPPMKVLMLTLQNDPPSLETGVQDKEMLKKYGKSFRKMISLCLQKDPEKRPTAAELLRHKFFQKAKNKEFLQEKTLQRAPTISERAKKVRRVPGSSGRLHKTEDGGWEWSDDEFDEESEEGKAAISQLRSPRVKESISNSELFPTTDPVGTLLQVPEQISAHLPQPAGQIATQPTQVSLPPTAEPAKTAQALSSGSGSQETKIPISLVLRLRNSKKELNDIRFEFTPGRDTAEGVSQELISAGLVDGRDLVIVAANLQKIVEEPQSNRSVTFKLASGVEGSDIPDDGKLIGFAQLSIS
various enzymes (Homo sapiens, UniProt Q02763), sequence (Q02763 23-1124): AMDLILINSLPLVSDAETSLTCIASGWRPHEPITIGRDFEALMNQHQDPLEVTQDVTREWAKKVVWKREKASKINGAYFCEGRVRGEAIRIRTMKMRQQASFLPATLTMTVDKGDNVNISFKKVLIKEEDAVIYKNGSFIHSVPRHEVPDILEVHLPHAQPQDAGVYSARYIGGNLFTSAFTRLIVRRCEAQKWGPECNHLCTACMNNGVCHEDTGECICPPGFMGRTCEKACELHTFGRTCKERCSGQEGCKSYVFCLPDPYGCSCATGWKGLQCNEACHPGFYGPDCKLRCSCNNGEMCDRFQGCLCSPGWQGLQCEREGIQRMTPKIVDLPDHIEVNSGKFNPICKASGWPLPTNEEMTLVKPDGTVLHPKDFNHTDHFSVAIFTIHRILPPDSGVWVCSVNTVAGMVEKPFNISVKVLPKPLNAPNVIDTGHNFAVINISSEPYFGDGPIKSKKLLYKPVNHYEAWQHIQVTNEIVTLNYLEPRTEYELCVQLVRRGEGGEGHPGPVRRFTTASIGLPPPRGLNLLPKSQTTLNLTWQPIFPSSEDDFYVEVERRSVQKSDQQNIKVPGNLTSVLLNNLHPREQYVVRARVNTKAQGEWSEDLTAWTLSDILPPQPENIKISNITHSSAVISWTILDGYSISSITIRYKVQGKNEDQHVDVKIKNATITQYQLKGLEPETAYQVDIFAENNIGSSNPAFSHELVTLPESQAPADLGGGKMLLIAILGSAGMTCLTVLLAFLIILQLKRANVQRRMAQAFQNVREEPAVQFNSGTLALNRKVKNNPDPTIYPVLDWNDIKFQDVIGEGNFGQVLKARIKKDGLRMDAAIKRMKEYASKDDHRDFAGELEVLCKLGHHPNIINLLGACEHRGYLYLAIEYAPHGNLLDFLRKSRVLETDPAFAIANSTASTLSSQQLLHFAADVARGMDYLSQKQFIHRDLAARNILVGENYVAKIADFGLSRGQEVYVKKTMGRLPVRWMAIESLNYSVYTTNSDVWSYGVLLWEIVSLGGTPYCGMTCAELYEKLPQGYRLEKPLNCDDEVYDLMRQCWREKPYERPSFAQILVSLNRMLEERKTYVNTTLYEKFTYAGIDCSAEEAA
various enzymes (Homo sapiens, UniProt P54756), sequence (P54756 25-1037): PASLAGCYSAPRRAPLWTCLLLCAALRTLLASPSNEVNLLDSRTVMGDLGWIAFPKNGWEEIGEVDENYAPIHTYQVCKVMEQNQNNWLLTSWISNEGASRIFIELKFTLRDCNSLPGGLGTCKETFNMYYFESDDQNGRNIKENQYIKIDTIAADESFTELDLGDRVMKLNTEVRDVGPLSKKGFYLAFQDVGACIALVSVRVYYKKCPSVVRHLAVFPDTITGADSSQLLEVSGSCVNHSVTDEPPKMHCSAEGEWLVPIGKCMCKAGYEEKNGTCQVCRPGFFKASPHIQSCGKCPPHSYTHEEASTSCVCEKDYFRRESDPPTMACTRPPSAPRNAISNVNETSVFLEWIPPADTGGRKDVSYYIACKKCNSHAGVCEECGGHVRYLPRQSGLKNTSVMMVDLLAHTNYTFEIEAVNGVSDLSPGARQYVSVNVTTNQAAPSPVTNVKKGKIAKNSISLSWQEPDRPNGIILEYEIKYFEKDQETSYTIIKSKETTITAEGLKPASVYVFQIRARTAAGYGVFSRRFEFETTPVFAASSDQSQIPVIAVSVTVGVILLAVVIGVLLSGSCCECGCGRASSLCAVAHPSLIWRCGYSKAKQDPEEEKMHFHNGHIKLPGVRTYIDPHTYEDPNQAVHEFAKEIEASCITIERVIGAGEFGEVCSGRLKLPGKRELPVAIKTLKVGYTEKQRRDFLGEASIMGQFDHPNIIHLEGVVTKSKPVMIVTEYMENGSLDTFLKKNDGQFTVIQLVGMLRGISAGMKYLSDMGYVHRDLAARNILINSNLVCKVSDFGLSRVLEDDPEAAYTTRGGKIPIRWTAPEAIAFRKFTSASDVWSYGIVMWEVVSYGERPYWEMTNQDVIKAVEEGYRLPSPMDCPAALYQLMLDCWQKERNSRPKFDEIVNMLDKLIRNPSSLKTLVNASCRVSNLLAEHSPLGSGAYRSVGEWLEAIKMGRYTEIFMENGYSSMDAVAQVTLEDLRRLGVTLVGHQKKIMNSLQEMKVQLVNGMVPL
various enzymes (Homo sapiens, UniProt P15735), sequence (P15735 whole entry): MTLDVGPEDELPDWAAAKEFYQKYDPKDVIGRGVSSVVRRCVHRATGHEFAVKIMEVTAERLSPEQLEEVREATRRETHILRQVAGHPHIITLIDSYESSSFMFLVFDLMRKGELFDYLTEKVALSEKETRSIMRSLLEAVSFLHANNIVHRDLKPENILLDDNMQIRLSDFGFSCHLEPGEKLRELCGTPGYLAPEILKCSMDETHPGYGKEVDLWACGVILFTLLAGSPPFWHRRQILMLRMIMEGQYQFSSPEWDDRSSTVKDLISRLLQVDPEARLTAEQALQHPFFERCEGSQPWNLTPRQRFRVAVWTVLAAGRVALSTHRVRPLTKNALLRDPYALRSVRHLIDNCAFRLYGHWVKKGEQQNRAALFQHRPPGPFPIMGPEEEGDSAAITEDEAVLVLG

## CC(C)N1Cc2nn(C)cc2-c2cnc3[nH]cc(c3c2)-c2cn(nc2C(F)(F)F)CCCC1=O [Compound 45, (Z)-5-isopropyl-31-methyl-13-(trifluoromethyl)-11H,21H,31H-5-aza-2(3,5)-pyrrolo[2,3-b]pyridina-1(4,1),3(4,3)-dipyrazolacyclononaphan-6-one]
[1]
  Ambit profiling: TIE1: 7.2
[2]
  Ambit profiling: GRK4: 14
[3]; compound 1 uM
  Ambit profiling: PIK3CA(H1047L): 100
[4]
  Ambit profiling: CSNK2A1: 19
[5]
  Ambit profiling: DRAK2: 100
[6]
  Ambit profiling: ERBB3: 100
[7]
  Ambit profiling: TIE2: 6.7
[8]
  Ambit profiling: ERBB2: 100
[9]
  Ambit profiling: MAP3K15: 84
[10]
  Ambit profiling: NEK9: 100
[11]; compound 1 uM
  Ambit profiling: PIK3CA(H1047Y): 84
[12]
  Ambit profiling: EPHB4: 76
[13]
  Ambit profiling: MRCKB: 86
[14]
  Ambit profiling: PDPK1: 98
[15]
  Ambit profiling: CSNK1D: 28
[16]
  Ambit profiling: PHKG2: 44
[17]
  Ambit profiling: HPK1: 5.9
[18]
  Ambit profiling: NEK11: 100
[19]
  Ambit profiling: DMPK2: 53
[20]
  Ambit profiling: WNK3: 100
[21]
  Ambit profiling: MAP3K1: 95
[22]; compound 1 uM
  Ambit profiling: KIT(V559D, T670I): 8.2
[23]
  Ambit profiling: PDGFRA: 11
[24]
  Ambit profiling: MELK: 0.25
[25]
  Ambit profiling: NIK: 94
[26]
  Ambit profiling: STK16: 1.9
[27]
  Ambit profiling: p38-delta: 100
[28]
  Ambit profiling: PIK3CB: 100
[29]
  Ambit profiling: EIF2AK1: 100
[30]
  Ambit profiling: SYK: 35
[31]
  Ambit profiling: EPHA5: 92
[32]
  Ambit profiling: RSK3(Kin.Dom.1-N-terminal): 4.7
  Ambit profiling: RSK3(Kin.Dom.2-C-terminal): 96
[33]; compound 1 uM
  Ambit profiling: FLT3(R834Q): 8.7
[34]
  Ambit profiling: NEK5: 100
[35]
  Ambit profiling: ERN1: 90
[36]
  Ambit profiling: OSR1: 100
[37]
  Ambit profiling: PKN2: 100
[38]
  Ambit profiling: CDK3: 33
[39]
  Ambit profiling: PYK2: 30
[40]
  Ambit profiling: TNNI3K: 72
[41]
  Ambit profiling: SRPK3: 13
[42]; compound 1 uM
  Ambit profiling: PFCDPK1(P. falciparum): 2.8
[43]
  Ambit profiling: RET: 0.15
[44]
  Ambit profiling: MAPKAPK5: 100

## COc1c2c(nn1C)CN(C(C)C)C(=O)CCCn1cc(c(C(F)(F)F)n1)-c1c[nH]c3ncc-2cc13 [Compound 50, (Z)-5-isopropyl-35-methoxy-31-methyl-13-(trifluoromethyl)-11H,21H,31H-5-aza-2(3,5)-pyrrolo[2,3-b]pyridina-1(4,1),3(4,3)-dipyrazolacyclononaphan-6-one]
[1]
  Ambit profiling: TIE1: 9.2
[2]
  Ambit profiling: GRK4: 38
[3]
  Ambit profiling: PIK3CA(H1047L): 83
[4]
  Ambit profiling: CSNK2A1: 59
[5]
  Ambit profiling: DRAK2: 98
[6]
  Ambit profiling: ERBB3: 100
[7]
  Ambit profiling: TIE2: 2.7
[8]
  Ambit profiling: ERBB2: 86
[9]
  Ambit profiling: MAP3K15: 76
[10]
  Ambit profiling: NEK9: 82
[11]
  Ambit profiling: PIK3CA(H1047Y): 100
[12]
  Ambit profiling: EPHB4: 40
[13]
  Ambit profiling: MRCKB: 99
[14]
  Ambit profiling: PDPK1: 100
[15]
  Ambit profiling: CSNK10: 11
[16]
  Ambit profiling: PHKG2: 53
[17]
  Ambit profiling: HPK1: 0
[18]
  Ambit profiling: NEK11: 94
[19]
  Ambit profiling: DMPK2: 47
[20]
  Ambit profiling: WNK3: 100
[21]
  Ambit profiling: MAP3K1: 72
[22]
  Ambit profiling: KIT(V559D, T670I): 10
[23]
  Ambit profiling: PDGFRA: 5.6
[24]
  Ambit profiling: MELK: 11
[25]
  Ambit profiling: NIK: 86
[26]
  Ambit profiling: STK16: 12
[27]
  Ambit profiling: p38-delta: 99
[28]
  Ambit profiling: PIK3CB: 100
[29]
  Ambit profiling: EIF2AK1: 66
[30]
  Ambit profiling: SYK: 26
[31]
  Ambit profiling: EPHA5: 67
[32]
  Ambit profiling: RSK3(Kin.Dom.1-N-terminal): 4
  Ambit profiling: RSK3(Kin.Dom.2-C-terminal): 80
[33]
  Ambit profiling: FLT3(R834Q): 0
[34]
  Ambit profiling: NEK5: 64
[35]
  Ambit profiling: ERN1: 71
[36]
  Ambit profiling: OSR1: 100
[37]
  Ambit profiling: PKN2: 100
[38]
  Ambit profiling: CDK3: 78
[39]
  Ambit profiling: PYK2: 19
[40]
  Ambit profiling: TNNI3K: 72
[41]
  Ambit profiling: SRPK3: 38
[42]
  Ambit profiling: PFCDPK1(P. falciparum): 24
[43]
  Ambit profiling: RET: 0.1
[44]
  Ambit profiling: MAPKAPK5: 100
